The values that follow come from patent US7786141B2 (Vertex Pharmaceuticals Incorporated, priority 2004, dated 2010).

In one assay the target is T1, M1 muscarinic receptor (Homo sapiens, UniProt P11229).
T1 construct: expressed in transfected cells; host or cells: CHO (M1-CHO)
T1 sequence (P11229 1-460): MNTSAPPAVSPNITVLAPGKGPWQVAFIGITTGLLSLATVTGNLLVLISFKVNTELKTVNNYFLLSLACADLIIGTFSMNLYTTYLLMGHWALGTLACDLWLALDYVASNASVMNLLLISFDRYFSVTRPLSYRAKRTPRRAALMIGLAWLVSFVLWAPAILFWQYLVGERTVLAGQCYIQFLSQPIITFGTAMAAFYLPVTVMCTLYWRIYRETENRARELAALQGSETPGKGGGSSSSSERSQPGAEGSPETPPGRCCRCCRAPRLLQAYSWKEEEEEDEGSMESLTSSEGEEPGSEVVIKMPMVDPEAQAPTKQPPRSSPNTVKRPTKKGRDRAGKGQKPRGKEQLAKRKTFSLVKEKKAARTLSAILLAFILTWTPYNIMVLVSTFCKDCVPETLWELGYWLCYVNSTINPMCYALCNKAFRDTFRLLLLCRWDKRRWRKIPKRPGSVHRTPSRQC
The experiment in a line: Functional mobilization of intracellular calcium (FLIPR) in M1-CHO cells. It counts as cell-based. The settings on record: for M1 Activity: modulating M1 receptor. Summed up: (§1)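 CHO cells stably expressing human M1 or M4 receptor were loaded with Fluo-3 AM (or Calcium 3 dye) in Hepes-buffered saline, pH 7.4, with 1 mM probenecid, 0.5% final DMSO. Agonist mode: compound added directly; antagonist mode: 15 min preincubation before carbachol at EC80. FLIPR fluorescence recorded 60 sec.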

In another assay the target is T2, M4 muscarinic receptor (Homo sapiens, UniProt P08173).
T2 construct: expressed in transfected cells; host or cells: CHO (M4-CHO)
T2 sequence (P08173 1-479): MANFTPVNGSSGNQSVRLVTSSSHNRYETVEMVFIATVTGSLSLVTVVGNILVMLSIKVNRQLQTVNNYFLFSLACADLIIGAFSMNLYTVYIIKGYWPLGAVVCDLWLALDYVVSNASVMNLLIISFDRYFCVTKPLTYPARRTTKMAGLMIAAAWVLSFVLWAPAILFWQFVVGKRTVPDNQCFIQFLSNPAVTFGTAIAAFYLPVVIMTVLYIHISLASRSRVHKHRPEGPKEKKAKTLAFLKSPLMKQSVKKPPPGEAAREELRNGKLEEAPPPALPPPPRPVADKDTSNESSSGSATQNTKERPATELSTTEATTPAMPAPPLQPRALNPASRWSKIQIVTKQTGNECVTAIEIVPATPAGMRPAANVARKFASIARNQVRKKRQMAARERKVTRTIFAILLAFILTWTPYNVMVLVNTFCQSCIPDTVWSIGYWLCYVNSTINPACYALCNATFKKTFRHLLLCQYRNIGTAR
As to the kind of experiment: Functional mobilization of intracellular calcium (FLIPR) in M4-CHO cells. In kind it is cell-based. The following applies: for M4 Activity: modulating M4 receptor. Summed up:
as §1
A general note: Calcium flux is commonly read through the fluorescence of an indicator in the cells.

The mark [1] stands for this setting: M1-CHO cells, calcium mobilization (FLIPR).
Setting [2] is: M1-CHO cells, calcium mobilization (FLIPR), read-out: M1 Efficacy.
Where [3] appears, read: M4-CHO cells, calcium mobilization (FLIPR).
[4] abbreviates: M4-CHO cells, calcium mobilization (FLIPR), read-out: M4 Efficacy.
Setting [5] is: Table 4, 100% efficacy is the maximum response obtained with the Carbachol control.

Structures are written as SMILES. Read-outs that look alike come from different tables or passages of the source.

In general, EC50 refers to the concentration giving half of the maximal effect. Regarding `CCOC(=O)N1CCC(N2CCC3(CC2)CN(C(C)=O)c2ccc(F)cc23)CC1` [compound 413], the EC50 is below 0.1 µM at M1 muscarinic receptor (setting [1]) and 0.1 to 1 µM at M4 muscarinic receptor (setting [3]). The Emax on M1 muscarinic receptor (setting [2]) and at M4 muscarinic receptor (setting [4]) was below 65% each time.

As for `CCOC(=O)N1CCC(CN2CCC3(CCc4ccccc43)CC2)CC1` [compound 414], the EC50 on M1 muscarinic receptor (setting [1]) and at M4 muscarinic receptor (setting [3]) was above 1 µM each time. Further, the Emax at M1 muscarinic receptor (setting [2]) and at M4 muscarinic receptor (setting [4]) was below 65% each time.

On to `Clc1ccc2c(c1)C1(CCN(CC3CCOCC3)CC1)CO2` [compound 415], for which the EC50 on M1 muscarinic receptor (setting [1]) and on M4 muscarinic receptor (setting [3]) was above 1 µM throughout. Besides, the Emax on M1 muscarinic receptor (setting [2]) and on M4 muscarinic receptor (setting [4]) was below 65% each time.

For `Fc1ccc2c(c1)C1(CCN(C3CC4CCC3C4)CC1)CN2` (stereo not shown) [compound 416], the EC50 on M1 muscarinic receptor (setting [1]) and at M4 muscarinic receptor (setting [3]) was above 1 µM in each case. In addition, the Emax at M1 muscarinic receptor (setting [2]) and at M4 muscarinic receptor (setting [4]) was below 65% each time.

Regarding `CCOC(=O)N1C2CCC1CC(N1CCC3(CC1)CN(C(C)=O)c1ccc(Cl)cc13)C2` (stereo not shown) [compound 417], the EC50 is 0.1 to 1 µM at M1 muscarinic receptor (setting [1]) and above 1 µM on M4 muscarinic receptor (setting [3]). The Emax at M1 muscarinic receptor (setting [2]) and at M4 muscarinic receptor (setting [4]) was below 65% each time.

Turning to `CC(=O)N1CC2(CCN(C3CCN(C(=O)O[C@H]4CCOC4)CC3)CC2)c2cc(F)ccc21` [compound 418], the EC50 on M1 muscarinic receptor (setting [1]) and at M4 muscarinic receptor (setting [3]) was above 1 µM each time. For the same compound, the Emax on M1 muscarinic receptor (setting [2]) and at M4 muscarinic receptor (setting [4]) was below 65% throughout.

As for `COCCOC(=O)N1CCC(CN2CCC3(CC2)CN(C(C)=O)c2ccc(C)cc23)CC1` [compound 419], the EC50 on M1 muscarinic receptor (setting [1]) and at M4 muscarinic receptor (setting [3]) was above 1 µM throughout. Also, the Emax at M1 muscarinic receptor (setting [2]) and on M4 muscarinic receptor (setting [4]) was below 65% throughout.

Turning to `c1ccc2c(c1)NCC21CCN(C2CC3CCC(C3)C2)CC1` (stereo not shown) [compound 420], the EC50 on M1 muscarinic receptor (setting [1]) is 0.1 to 1 µM; at M4 muscarinic receptor (setting [3]) it was above 1 µM. In addition, the Emax on M1 muscarinic receptor (setting [2]) and at M4 muscarinic receptor (setting [4]) was below 65% in each case.

Consider `CC(=O)NC1CC2(CCN(C[C@@H]3C[C@H]4C=C[C@H]3C4)CC2)c2ccccc21` (stereo partly shown) [compound 421], for which, at M1 muscarinic receptor (setting [1]), the EC50 was above 1 µM and the “M1 Efficacy” value is “x (efficacy was calculated to be less than 65%)”. At M4 muscarinic receptor (setting [3]), the EC50 is above 1 µM and the “M4 Efficacy” value was “x (efficacy was calculated to be less than 65%)”.

Take `COCCOC(=O)N1CC2(CCN(C3CC4CCC(C3)N4C(=O)OC(C)C)CC2)c2cc(F)ccc21` (stereo not shown) [compound 422]: the EC50 on M1 muscarinic receptor (setting [1]) was below 0.1 µM; on M4 muscarinic receptor (setting [3]), above 1 µM. In addition, the Emax at M1 muscarinic receptor (setting [2]) and at M4 muscarinic receptor (setting [4]) was below 65% in each case.

For the compound `COC(=O)N1CCC(CN2CCC3(CC2)CN(C(C)=O)c2ccc(C)cc23)CC1` [compound 423], the EC50 is 0.1 to 1 µM at M1 muscarinic receptor (setting [1]) and above 1 µM at M4 muscarinic receptor (setting [3]). The Emax at M1 muscarinic receptor (setting [2]) and on M4 muscarinic receptor (setting [4]) was below 65% in each case.

With `CC(=O)N1CC2(CCN(C3CCN(C(=O)O[C@@H]4CCOC4)CC3)CC2)c2cc(F)ccc21` [compound 424], the EC50 at M1 muscarinic receptor (setting [1]) and on M4 muscarinic receptor (setting [3]) was above 1 µM each time. Also, the Emax on M1 muscarinic receptor (setting [2]) and on M4 muscarinic receptor (setting [4]) was below 65% in each case.

In the case of `CC(=O)N1CC2(CCN(C3CCCC(C(F)(F)F)C3)CC2)c2cc(F)ccc21` (stereo not shown) [compound 425], the EC50 at M1 muscarinic receptor (setting [1]) and on M4 muscarinic receptor (setting [3]) was above 1 µM in each case. Also, the Emax on M1 muscarinic receptor (setting [2]) and on M4 muscarinic receptor (setting [4]) was below 65% each time.

Turning to `CCOC(=O)N1CCC(N2CCC3(CC2)CN(C(C)=O)c2ccc(C4=CCCC4)cc23)CC1` [compound 426], the EC50 on M1 muscarinic receptor (setting [1]) and at M4 muscarinic receptor (setting [3]) was above 1 µM each time. Besides, the Emax on M1 muscarinic receptor (setting [2]) and at M4 muscarinic receptor (setting [4]) was below 65% in each case.

As to `CCOC(=O)N1CCC(N2CCC3(CC2)CN(C(=O)OCC)c2ccc(F)cc23)CC1` [compound 427], the concentration for a half-maximal effect (EC50) at M1 muscarinic receptor (setting [1]) is 0.1 to 1 µM; on M4 muscarinic receptor (setting [3]), above 1 µM. In addition, the Emax at M1 muscarinic receptor (setting [2]) and on M4 muscarinic receptor (setting [4]) was below 65% throughout.

In the case of `CCOC(=O)N1CCC(N2CCC3(CC2)CN(C(=O)O[C@H]2CCOC2)c2ccc(F)cc23)CC1` [compound 428], the EC50 was 0.1 to 1 µM on M1 muscarinic receptor (setting [1]) and above 1 µM at M4 muscarinic receptor (setting [3]). The Emax at M1 muscarinic receptor (setting [2]) and on M4 muscarinic receptor (setting [4]) was below 65% each time.

In the case of `Fc1ccc2c(c1)C1(CCN(C[C@@H]3C[C@H]4CC[C@H]3O4)CC1)CN2` [compound 429], the EC50 at M1 muscarinic receptor (setting [1]) is 0.1 to 1 µM; at M4 muscarinic receptor (setting [3]), above 1 µM. For the same compound, the Emax on M1 muscarinic receptor (setting [2]) and on M4 muscarinic receptor (setting [4]) was below 65% throughout.

For the compound `CCOC(=O)N1CCC(N2CCC3(CC2)C[C@@H](NC(C)=O)c2ccccc23)CC1` [compound 430], the EC50 is 0.1 to 1 µM on M1 muscarinic receptor (setting [1]) and above 1 µM at M4 muscarinic receptor (setting [3]). Besides, the Emax on M1 muscarinic receptor (setting [2]) and at M4 muscarinic receptor (setting [4]) was below 65% each time.

For `CCOC(=O)N1CCC(N2CCC3(CC2)CN(C(C)=O)c2c(F)ccc(F)c23)CC1` [compound 431], the Emax at M1 muscarinic receptor (setting [5]) and on M4 muscarinic receptor (setting [5]) was 25 to 100% each time. In addition, the “M1 Activity” value at M1 muscarinic receptor (Table 4) was “xx (activity was measured to be between 2.0 μM and 5.0 μM)”. Further, on M4 muscarinic receptor (Table 4), the “M4 Activity” value is “xx (activity was measured to be between 2.0 μM and 5.0 μM)”.

`CC(C)C(=O)N[C@@H]1CC2(CCN(C[C@H]3C[C@H]4CC[C@H]3C4)CC2)c2ccccc21` [compound 432]: the Emax at M1 muscarinic receptor (setting [5]) and on M4 muscarinic receptor (setting [5]) was below 25% in each case. Also, the “M1 Activity” value on M1 muscarinic receptor (Table 4) is given as “x (activity was measured to be greater than 5.0 μM)”. Moreover, the “M4 Activity” value on M4 muscarinic receptor (Table 4) is reported as “x (activity was measured to be greater than 5.0 μM)”.

For `CCOC(=O)N1CCC(N2CCC3(CC2)CN(C(=O)Nc2ccccc2)c2ccccc23)CC1` [compound 433], the Emax is above 100% on M1 muscarinic receptor (setting [5]) and 25 to 100% at M4 muscarinic receptor (setting [5]). In addition, the “M1 Activity” value on M1 muscarinic receptor (Table 4) was “xxx (activity was measured to be less than 2.0 μM)”. In addition, the “M4 Activity” value at M4 muscarinic receptor (Table 4) is “xxx (activity was measured to be less than 2.0 μM)”.

As for `CCOC(=O)N1CCC(N2CCC3(CC2)CN(C(C)=O)c2c(-c4ccc(OC)cc4)cccc23)CC1` [compound 434], the Emax on M1 muscarinic receptor (setting [5]) and on M4 muscarinic receptor (setting [5]) was 25 to 100% in each case. For the same compound, at M1 muscarinic receptor (Table 4), the “M1 Activity” value was “x (activity was measured to be greater than 5.0 μM)”. On M4 muscarinic receptor (Table 4), the “M4 Activity” value is given as “xxx (activity was measured to be less than 2.0 μM)”.

Regarding `CN(C)C(=O)N1CC2(CCN(C3CCN(C(=O)c4ccco4)CC3)CC2)c2cc(F)ccc21` [compound 435], the Emax on M1 muscarinic receptor (setting [5]) and on M4 muscarinic receptor (setting [5]) was 25 to 100% throughout. Moreover, the “M1 Activity” value at M1 muscarinic receptor (Table 4) is on record as “xxx (activity was measured to be less than 2.0 μM)”. The “M4 Activity” value at M4 muscarinic receptor (Table 4) is “xxx (activity was measured to be less than 2.0 μM)”.

Turning to `CC(=O)N[C@H]1CC2(CCN(C3CCN(C)CC3C)CC2)c2ccccc21` (stereo partly shown) [compound 436], the Emax at M1 muscarinic receptor (setting [5]) and at M4 muscarinic receptor (setting [5]) was below 25% throughout. Also, on M1 muscarinic receptor (Table 4), the “M1 Activity” value is “x (activity was measured to be greater than 5.0 μM)”. Moreover, on M4 muscarinic receptor (Table 4), the “M4 Activity” value is recorded as “x (activity was measured to be greater than 5.0 μM)”.

As to `CC(=O)N[C@@H]1CC2(CCN(C3CCOCC3)CC2)c2ccccc21` [compound 437], the Emax at M1 muscarinic receptor (setting [5]) and at M4 muscarinic receptor (setting [5]) was below 25% in each case. The “M1 Activity” value at M1 muscarinic receptor (Table 4) is “x (activity was measured to be greater than 5.0 μM)”. Besides, at M4 muscarinic receptor (Table 4), the “M4 Activity” value was “x (activity was measured to be greater than 5.0 μM)”.
